From patent publication US20090239926A1, “METHODS FOR THE TREATMENT OF PSORIASIS OR PSORIATIC ARTHRITIS USING CYCLOPROPYL-N-CARBOXAMIDE” (priority 2008, published 2009) come the findings set out here.

By IC50 is commonly meant the concentration that inhibits the measured activity by half.

SMILES strings stand for the structures. “And” between values parts separate entries of the source, which are not always exact repeats. Identical values can stand only once.

The subject of experiment [1] is fMLF-induced neutrophil LTB4 production. The experiment in a line: fMLF-induced neutrophil LTB4 production. Format: cell-based. The following applies: Homo sapiens, 0.5 h, 1 μM fMLP, 30 minutes. The method, then: Formyl-Met-Leu-Phe (fMLP, Sigma) is a bacterially derived peptide that activates neutrophils to rapidly degranulate, migrate, and adhere to endothelial cells. Among the contents of the neutrophil granule is leukotriene B4 (LTB4), a product of arachidonic acid metabolism and itself a neutrophil stimulant. Compound A was tested for the ability to block fMLF-induced neutrophil LTB4 production.
Human neutrophils were isolated from human leukocyte units by dextran sedimentation as described in Coligan, J. E., et al., Current Protocols in Immunology, ed. R. Coico. Vol. 2. 2002: 2-3. The neutrophils were resuspended in phosphate-buffered saline without calcium or magnesium (BioWhittaker) containing 10 mM HEPES pH 7.2 and plated in 96-well tissue culture plates at a concentration of 1.7×10^6 cells/well. Cells were treated with 50 μM thimerosal (Sigma)/1 mM CaCl2/1 mM MgCl2 for 15 minutes at 37° C. 5% CO2, then treated with Compound A in a final DMSO concentration of 0.01% in duplicate for 10 minutes. Neutrophils were stimulated with 1 μM fMLP for 30 minutes, then lysed by the addition of methanol (20% final concentration) and frozen in a dry ice/isopropanol bath for 10 minutes. Lysates were stored at −70° C. until the LTB4 content was measured by competitive LTB4 ELISA (R&D systems).

The subject of experiment [2] is CD18 expression on neutrophils. Briefly: fMLF-induced neutrophil CD18 expression. Particulars: Homo sapiens, 0.5 h, 30 nM fMLF, 30 minutes, flow cytometry. Format: cell-based. How it is done: CD18/CD11b (Mac-1) expression on neutrophils was measured with the following modifications. (Derian, C. K., et al., J Immunol, 1995. 154(1): 308-17). Neutrophils were isolated as described above, then resuspended in complete medium at 1×10^6 cells/ml, pretreated with Compound A at 10, 1, 0.1, 0.01, and 0 μM in duplicate at a final DMSO concentration of 0.1% for 10 minutes at 37° C. 5% CO2. Cells were then stimulated with 30 nM fMLF for 30 minutes and then chilled to 4° C. Cells were treated with rabbit IgG (Jackson ImmunoResearch Labs, West Grove, Pa., USA) (10 μg/1×10^6 cells) to block Fc receptors, stained with CD18-FITC and CD11b-PE (Becton Dickinson), and analyzed by flow cytometry on a FACSCalibur. CD18/CD11b expression (mean fluorescence) in the absence of stimulation was subtracted from all samples to obtain inhibition curves and calculate IC50.
(In general: Flow cytometry measures light scatter and fluorescence of single cells or particles in a stream.)

Take `CCOc1cc([C@@H](CS(C)(=O)=O)N2Cc3cccc(NC(=O)C4CC4)c3C2=O)ccc1OC` [Compound A, cyclopropyl-N-{2-[(1S)-1-(3-ethoxy-4-methoxyphenyl)-2-(methylsulfonyl)ethyl]-3-oxoisoindoline-4-yl}carboxamide]: the IC50 in experiment [1] was 10 nM and 0.0047 µg/mL; in experiment [2] it was 23 nM and 0.011 µg/mL.
